The target of series [1] is T1, Tyrosine-protein kinase ABL1 (Homo sapiens, UniProt P00519). The experiment in a line: Activation of full length human 6His-tagged c-Abl expressed in baculovirus expression system using abltide as substrate after 2 hrs by IMAP assay. Conditions: read-out: pIC50 (converted).
The target of series [2] is Tyrosine-protein kinase ABL1 (Homo sapiens, UniProt P00519, D382N). The experiment in a line: Displacement of Myr-GQQPGKVLGDQRRPSL(K-TAMRA)G-amide from N-terminal-truncated human c-ABL D382N mutant (46 to 534 residues) after 30 mins by fluorescence polarization binding assay. In general terms: In fluorescence polarisation assays a small probe gives low polarisation when free and higher when bound to something large.

The target in series [3] is T1, Tyrosine-protein kinase ABL1. The experiment in a line: Induction of human c-ABL phosphorylation at Y245/Y412 residues in bacmam-induced HEK-MSR2 cell lysates by in-cell Western blot analysis. The class given is subcellular, Lysate.
Series [4] in a line: Kinetic solubility of the compound at pH 7.4 after 1 hr by CLND-based assay. Conditions: buffer, read-out: Kinetic_solubility. The format is physicochemical.
A short description of series [5]: Permeability of the compound at […] after 3 hrs by artificial membrane permeability assay. Conditions: PAMPA; read-out: permeability. The format is ADME. A general note: The PAMPA barrier holds no transporters, so it reflects passive diffusion.
Series [6] can be described thus: Intrinsic clearance in CD1 mouse liver microsomes at 0.5 uM measured up 60 mins in presence of NADPH by LC-MS/MS analysis. The class given is ADME, Microsome. The conditions noted are these: 1 h.
Series [7] can be described thus: Terminal plasma concentration in CD1 mouse at 100 mg/kg, ip after 40 mins. The format is ADME, organism-based. The conditions noted are these: read-out: Cp(T).
A short description of series [8]: Terminal plasma concentration in CD1 mouse at 100 mg/kg, ip after 180 mins. The format is ADME, organism-based. Conditions: read-out: Cp(T).
Series [9] concerns Mus musculus. Put plainly: In vivo activation of c-ABL in CD1 mouse assessed as fold increase in phosphorylated CRKL level at 100 mg/kg, ip after 40 mins relative to total CRK-L protein level. The format is functional.
Series [10] deals with Mus musculus. The experiment in a line: In vivo activation of c-ABL in CD1 mouse assessed as fold increase in phosphorylated CRKL level at 100 mg/kg, ip after 180 mins relative to total CRK-L protein level. The class given is functional.
Series [11] in a line: Toxicity in CD1 mouse assessed as induction of hemolysis at 100 mg/kg, BID for 10 days. The class given is organism-based. The conditions noted are these: in vivo, 240 h.

≈ marks a conversion by molar mass, not a printed value. A value given as a limit tells only on which side of the number the result lay.

Tyrosine-protein kinase ABL1 (Homo sapiens, UniProt P00519, D382N), sequence (P00519 as listed by the source D382N): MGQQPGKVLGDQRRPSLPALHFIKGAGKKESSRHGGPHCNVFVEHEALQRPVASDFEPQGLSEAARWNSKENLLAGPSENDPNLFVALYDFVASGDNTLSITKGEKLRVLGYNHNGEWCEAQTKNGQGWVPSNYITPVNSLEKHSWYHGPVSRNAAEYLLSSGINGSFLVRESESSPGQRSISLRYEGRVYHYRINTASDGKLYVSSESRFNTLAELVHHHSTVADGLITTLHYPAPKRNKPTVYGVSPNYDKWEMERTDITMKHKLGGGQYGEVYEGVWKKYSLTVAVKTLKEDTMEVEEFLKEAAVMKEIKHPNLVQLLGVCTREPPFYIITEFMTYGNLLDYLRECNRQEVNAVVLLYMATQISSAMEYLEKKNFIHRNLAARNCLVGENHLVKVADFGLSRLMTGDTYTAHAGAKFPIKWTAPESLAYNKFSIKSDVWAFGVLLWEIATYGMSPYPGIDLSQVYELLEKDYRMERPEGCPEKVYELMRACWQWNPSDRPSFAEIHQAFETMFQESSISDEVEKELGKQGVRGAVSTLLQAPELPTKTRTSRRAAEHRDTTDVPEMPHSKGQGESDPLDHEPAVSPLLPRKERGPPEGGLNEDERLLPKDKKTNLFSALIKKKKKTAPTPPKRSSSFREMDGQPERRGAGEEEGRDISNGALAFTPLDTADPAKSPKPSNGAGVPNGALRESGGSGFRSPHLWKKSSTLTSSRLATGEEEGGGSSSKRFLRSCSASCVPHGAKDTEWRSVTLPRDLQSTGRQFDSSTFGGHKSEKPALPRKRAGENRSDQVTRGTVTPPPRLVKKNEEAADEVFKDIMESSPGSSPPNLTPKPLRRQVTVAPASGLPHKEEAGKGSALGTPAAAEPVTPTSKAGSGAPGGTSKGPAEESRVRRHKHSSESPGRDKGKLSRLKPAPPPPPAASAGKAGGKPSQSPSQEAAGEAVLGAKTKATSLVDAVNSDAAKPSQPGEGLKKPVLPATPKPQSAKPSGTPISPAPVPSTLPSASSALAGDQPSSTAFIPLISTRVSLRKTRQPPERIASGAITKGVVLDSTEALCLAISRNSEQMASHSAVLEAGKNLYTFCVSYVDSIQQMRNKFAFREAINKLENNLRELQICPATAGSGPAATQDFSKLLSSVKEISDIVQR
T1 sequence (P00519 whole entry, the tested form may be a part): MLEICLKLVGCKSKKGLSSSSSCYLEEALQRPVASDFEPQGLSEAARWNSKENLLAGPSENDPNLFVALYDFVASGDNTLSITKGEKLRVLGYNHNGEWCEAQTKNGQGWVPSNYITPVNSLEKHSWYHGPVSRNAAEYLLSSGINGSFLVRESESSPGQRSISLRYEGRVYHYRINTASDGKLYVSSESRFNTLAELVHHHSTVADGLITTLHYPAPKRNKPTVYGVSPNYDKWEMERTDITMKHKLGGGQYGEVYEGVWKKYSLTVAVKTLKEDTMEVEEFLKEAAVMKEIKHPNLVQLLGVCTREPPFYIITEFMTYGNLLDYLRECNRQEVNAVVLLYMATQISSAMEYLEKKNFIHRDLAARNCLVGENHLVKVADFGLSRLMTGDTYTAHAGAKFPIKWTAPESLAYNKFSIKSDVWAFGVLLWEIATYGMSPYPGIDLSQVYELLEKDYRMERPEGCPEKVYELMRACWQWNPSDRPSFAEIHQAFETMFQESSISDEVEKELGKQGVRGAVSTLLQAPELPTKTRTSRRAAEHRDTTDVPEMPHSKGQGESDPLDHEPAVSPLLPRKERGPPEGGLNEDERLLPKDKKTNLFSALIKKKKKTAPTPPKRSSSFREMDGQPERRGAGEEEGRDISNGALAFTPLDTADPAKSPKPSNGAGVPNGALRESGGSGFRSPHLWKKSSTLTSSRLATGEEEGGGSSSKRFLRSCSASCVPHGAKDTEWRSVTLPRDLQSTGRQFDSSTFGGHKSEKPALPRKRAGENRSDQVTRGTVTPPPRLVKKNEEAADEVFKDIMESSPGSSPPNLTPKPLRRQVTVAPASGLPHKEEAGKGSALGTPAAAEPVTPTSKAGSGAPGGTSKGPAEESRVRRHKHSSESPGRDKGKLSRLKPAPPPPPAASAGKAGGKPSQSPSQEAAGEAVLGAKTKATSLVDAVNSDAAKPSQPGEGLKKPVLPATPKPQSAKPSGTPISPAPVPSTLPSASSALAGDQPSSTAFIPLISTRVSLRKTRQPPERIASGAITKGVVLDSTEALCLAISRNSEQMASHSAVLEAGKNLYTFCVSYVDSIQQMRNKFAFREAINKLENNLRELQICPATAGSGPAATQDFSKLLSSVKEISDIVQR

As a reminder, the IC50 is the concentration needed to halve the response being measured. A low value points to inhibition by little substance. What is called EC50 is the midpoint of the concentration-response curve. For `N#CCCC(=O)NC1=NN(c2ccc(Cl)c(Cl)c2)CC1`, the EC50 for c-Abl activation in series [1] is 0.251 µM. Also, the IC50 in series [2] is 0.316 µM. This compound showed a concentration for a half-maximal effect (EC50) in series [3] of 0.794 µM. Besides, the solubility kinetic at 1 h in series [4] was 39 µM (≈ 12.1 µg/mL). In addition, the Papp at 3 h in series [5] stood at 35.5 ×10⁻⁶ cm/s. In addition, in series [6], the CLint was below 10 µL/min/mg. In series [7], the concentration at 40 min is 15600 ng/mL. Moreover, in series [8], the concentration at 3 h was 17600 ng/mL. In addition, the “fold change (FC)” value came to 19 in series [9] and 35 in series [10]. Further, the Activity result in series [11] is recorded as “Toxic”.

Turning to `N#CCC(=O)Nc1cc(-c2ccc(Cl)c(Cl)c2)cs1`, the EC50 for c-Abl activation in series [1] is 3.16 µM. Besides, the IC50 in [2] is 3.98 µM. It took 20 µM to reach a half-maximal effect in series [3] (EC50). In addition, the solubility kinetic at 1 h in series [4] is 12 µM (≈ 3.73 µg/mL). For the same compound, the Papp at 3 h in series [5] was found to be 19 ×10⁻⁶ cm/s.

`N#CCC(=O)Nc1nc(-c2ccc(Cl)c(Cl)c2)ns1`: the EC50 for c-Abl activation in series [1] is 3.16 µM. The IC50 in series [2] is 1 µM. In [3], this compound showed an EC50 of 10 µM. Also, the solubility kinetic at 1 h in series [4] was found to be 370 µM (≈ 116 µg/mL). The Papp at 3 h in series [5] came to 23 ×10⁻⁶ cm/s.

In the case of `CC(=O)NC1=NN(c2ccc(Cl)c(Cl)c2)CC1`, in series [1], the EC50 for c-Abl activation was 0.316 µM. The compound also showed an IC50 in series [2] of 0.398 µM. Also, the midpoint of the response in series [3], the EC50, lay at 0.794 µM. Further, in [4], the solubility kinetic at 1 h turned out to be 31 µM (≈ 8.44 µg/mL). For the same compound, the Papp at 3 h in series [5] worked out at 36 ×10⁻⁶ cm/s.

Turning to `CC(=O)Nc1nc(-c2ccc(Cl)c(Cl)c2)cs1`, the EC50 for c-Abl activation in [1] was 2.51 µM. Moreover, in [2], the IC50 was 0.316 µM. This compound showed an EC50 in series [3] of 31.6 µM. For the same compound, the solubility kinetic at 1 h in [4] was below 1 µM. The Papp at 3 h in series [5] was 19.6 ×10⁻⁶ cm/s.

Turning to `NC1=NN(c2ccc(Cl)c(Cl)c2)CC1`, the EC50 for c-Abl activation in series [1] was 6.31 µM. In addition, in [2], the IC50 is 2 µM. In [3], this compound showed an EC50 of 12.6 µM. In [4], the solubility kinetic at 1 h was found to be 69 µM (≈ 15.9 µg/mL). Moreover, in series [5], the Papp at 3 h worked out at 32 ×10⁻⁶ cm/s.

`O=C(Nc1nc(-c2ccc(Cl)c(Cl)c2)cs1)C1CC1`: the EC50 for c-Abl activation in series [1] was 0.158 µM. This compound gave an IC50 in series [2] of 0.251 µM. For the same compound, the EC50 in series [3] was above 50.1 µM. Further, the solubility kinetic at 1 h in series [4] amounted to 3 µM (≈ 0.94 µg/mL). Also, in [5], the Papp at 3 h amounted to 22.7 ×10⁻⁶ cm/s.

Consider `O=C(Nc1nc(-c2ccc(Cl)c(Cl)c2)cs1)c1cncs1`, for which the EC50 for c-Abl activation in [1] is 0.501 µM. For the same compound, in series [2], the IC50 is 0.2 µM. In addition, in series [3], the EC50 was above 50.1 µM. Moreover, the solubility kinetic at 1 h in series [4] is 2 µM (≈ 0.713 µg/mL). The Papp at 3 h in series [5] stood at 6.1 ×10⁻⁶ cm/s.

Turning to `N#CCC(=O)NC1=NN(c2ccc(Cl)c(Cl)c2)CC1`, the EC50 for c-Abl activation in series [1] is 0.251 µM. In addition, the IC50 in [2] is 0.398 µM. This compound also showed an EC50 in series [3] of 1 µM. Further, the solubility kinetic at 1 h in series [4] stood at 202 µM (≈ 60 µg/mL). Also, the Papp at 3 h in series [5] amounted to 32 ×10⁻⁶ cm/s.

As for `C[C@H]1CN(c2ccc(Cl)c(Cl)c2)N=C1NC(=O)c1cncnc1`, the EC50 for c-Abl activation in series [1] is 0.02 µM. The same compound gave an IC50 in [2] of 0.316 µM. In [3], this compound gave an EC50 of 0.1 µM. The solubility kinetic at 1 h in [4] stood at 9 µM (≈ 3.15 µg/mL). For the same compound, the Papp at 3 h in [5] was 42 ×10⁻⁶ cm/s.

Turning to `O=C(NC1=NN(c2ccc(Cl)c(Cl)c2)CC1)c1cccnc1`, the EC50 for c-Abl activation in [1] is 0.158 µM. The compound further showed an IC50 in series [2] of 0.251 µM. Besides, the EC50 in [3] is 0.631 µM. The solubility kinetic at 1 h in series [4] was determined as 4 µM (≈ 1.34 µg/mL). Moreover, the Papp at 3 h in series [5] worked out at 30.5 ×10⁻⁶ cm/s.

For the compound `O=C(NC1=NN(c2ccc(Cl)c(Cl)c2)CC1)c1cccnc1F`, in series [1], the EC50 for c-Abl activation was 0.126 µM. The IC50 in series [2] is 0.398 µM. The compound also had an EC50 in series [3] of 1.26 µM. Further, in series [4], the solubility kinetic at 1 h was 13 µM (≈ 4.59 µg/mL). In series [5], the Papp at 3 h came out at 57 ×10⁻⁶ cm/s.

In the case of `CS(=O)(=O)Nc1nc(-c2ccc(Cl)c(Cl)c2)cs1`, in series [1], the EC50 for c-Abl activation is 25.1 µM. In [2], the IC50 was above 50.1 µM. The compound also showed an EC50 in [3] above 50.1 µM. Further, the solubility kinetic at 1 h in series [4] came to 429 µM (≈ 139 µg/mL). Moreover, the Papp at 3 h in series [5] is 22 ×10⁻⁶ cm/s.

As to `CC(=O)Nc1nc(-c2cc(Cl)c(Cl)s2)cs1`, in series [1], the EC50 for c-Abl activation is above 100 µM. Further, the IC50 in series [2] is 6.31 µM. The compound further showed an EC50 in [3] above 50.1 µM. Moreover, the solubility kinetic at 1 h in [4] turned out to be 1 µM (≈ 0.293 µg/mL). The Papp at 3 h in [5] was found to be 28 ×10⁻⁶ cm/s.

(Values after ChEMBL document CHEMBL4411335, “Identification and Optimization of Novel Small c-Abl Kinase Activators Using Fragment and HTS Methodologies” (J Med Chem, 2019).)
